Source: PMC5988656, “Phase I studies of AZD1208, a proviral integration Moloney virus kinase inhibitor in solid and haematological cancers” (British Journal of Cancer, 2018)

Test: Solid tumour dose-escalation study: pharmacokinetics (plasma, urine)
Type: in vivo, human
Details: for Plasma concentration of AZD1208, Gmean: Cycle 1, Day 15
Protocol: The schedules for collection of blood and urine samples for PK analyses in each cohort in both studies are described in Supplementary Table 1. When necessary for clinical response assessment in the AML study, a bone marrow sample for PK analysis was collected at Cycle 1, Day 28.
The concentration of AZD1208 in plasma and urine was determined by Covance, on behalf of Clinical Bioanalysis Alliance at AstraZeneca R&D, using a bioanalytical method. A volume of 0.05 ml of K2EDTA human plasma sample was extracted by liquid–liquid extraction using 0.7 ml of methyl tert-butyl ether. Approximately 100 µl of the supernatant was transferred, evaporated to dryness and reconstituted with 350 µl of 1:1 methanol:water, and a 5 µl injection was made to the high-performance liquid chromatography (HPLC) column. HPLC separations were performed on a Phenomenex LUNA C18 (50 × 2 mm, 5 µm) column using a mobile phase of 0.1% formic acid in water (A) and 0.1% formic acid in acetonitrile (B) at a flow rate of 0.6 ml/min and a column temperature of 40 °C. AZD1208-D5 was used as the internal standard. Detection was performed in a Sciex API4000 mass spectrometer, in a positive electrospray ionisation mode, using multiple reaction monitoring detection (AZD1208: 380.0–>248.1; AZD1208-D5: 385.0–>253.1).

N[C@@H]1CCCN(c2c(/C=C3\SC(=O)NC3=O)cccc2-c2ccccc2)C1 [AZD1208]
Plasma concentration of AZD1208, Gmean (0.25 h post-dose, 360 mg): n=2 562.8 ng ml
Plasma concentration of AZD1208, Gmean (0.25 h post-dose, 540 mg): n=3 496.8 ng ml
Plasma concentration of AZD1208, Gmean (0.5 h post-dose, 120 mg): n=3 1109 ng ml
Plasma concentration of AZD1208, Gmean (0.5 h post-dose, 240 mg): n=6 881.5 ng ml
Plasma concentration of AZD1208, Gmean (0.5 h post-dose, 360 mg): n=3 884.4 ng ml
Plasma concentration of AZD1208, Gmean (0.5 h post-dose, 540 mg): n=3 774 ng ml
Plasma concentration of AZD1208, Gmean (0.5 h post-dose, 700 mg): n=4 1042 ng ml
Plasma concentration of AZD1208, Gmean (0.5 h post-dose, 800 mg): n=2 1420 ng ml
Plasma concentration of AZD1208, Gmean (1 h post-dose, 120 mg): n=3 1319 ng ml
Plasma concentration of AZD1208, Gmean (1 h post-dose, 240 mg): n=6 1316 ng ml
Plasma concentration of AZD1208, Gmean (1 h post-dose, 360 mg): n=3 1983 ng ml
Plasma concentration of AZD1208, Gmean (1 h post-dose, 540 mg): n=3 1691 ng ml
Plasma concentration of AZD1208, Gmean (1 h post-dose, 700 mg): n=4 1320 ng ml
Plasma concentration of AZD1208, Gmean (1 h post-dose, 800 mg): n=2 1783 ng ml
Plasma concentration of AZD1208, Gmean (1.5 h post-dose, 120 mg): n=3 1367 ng ml
Plasma concentration of AZD1208, Gmean (1.5 h post-dose, 240 mg): n=6 1843 ng ml
Plasma concentration of AZD1208, Gmean (1.5 h post-dose, 360 mg): n=3 3212 ng ml
Plasma concentration of AZD1208, Gmean (1.5 h post-dose, 540 mg): n=3 3302 ng ml
Plasma concentration of AZD1208, Gmean (2 h post-dose, 120 mg): n=3 1681 ng ml
Plasma concentration of AZD1208, Gmean (2 h post-dose, 240 mg): n=6 2340 ng ml
Plasma concentration of AZD1208, Gmean (2 h post-dose, 360 mg): n=3 3106 ng ml
Plasma concentration of AZD1208, Gmean (2 h post-dose, 540 mg): n=3 3646 ng ml
Plasma concentration of AZD1208, Gmean (2 h post-dose, 700 mg): n=4 2802 ng ml
Plasma concentration of AZD1208, Gmean (2 h post-dose, 800 mg): n=2 1705 ng ml
Plasma concentration of AZD1208, Gmean (4 h post-dose, 120 mg): n=3 1649 ng ml
Plasma concentration of AZD1208, Gmean (4 h post-dose, 240 mg): n=6 1899 ng ml
Plasma concentration of AZD1208, Gmean (4 h post-dose, 360 mg): n=3 2483 ng ml
Plasma concentration of AZD1208, Gmean (4 h post-dose, 540 mg): n=3 2508 ng ml
Plasma concentration of AZD1208, Gmean (4 h post-dose, 700 mg): n=4 2882 ng ml
Plasma concentration of AZD1208, Gmean (4 h post-dose, 800 mg): n=2 2509 ng ml
Plasma concentration of AZD1208, Gmean (6 h post-dose, 120 mg): n=3 1657 ng ml
Plasma concentration of AZD1208, Gmean (6 h post-dose, 240 mg): n=6 1637 ng ml
Plasma concentration of AZD1208, Gmean (6 h post-dose, 360 mg): n=2 2130 ng ml
Plasma concentration of AZD1208, Gmean (6 h post-dose, 540 mg): n=3 2023 ng ml
Plasma concentration of AZD1208, Gmean (6 h post-dose, 700 mg): n=4 3291 ng ml
Plasma concentration of AZD1208, Gmean (6 h post-dose, 800 mg): n=2 3401 ng ml
Plasma concentration of AZD1208, Gmean (8 h post-dose, 120 mg): n=3 1262 ng ml
Plasma concentration of AZD1208, Gmean (8 h post-dose, 240 mg): n=6 1466 ng ml
Plasma concentration of AZD1208, Gmean (8 h post-dose, 360 mg): n=3 1813 ng ml
Plasma concentration of AZD1208, Gmean (8 h post-dose, 540 mg): n=3 1739 ng ml
Plasma concentration of AZD1208, Gmean (pre-dose, 120 mg): n=3 903.1 ng ml
Plasma concentration of AZD1208, Gmean (pre-dose, 240 mg): n=6 560.9 ng ml
Plasma concentration of AZD1208, Gmean (pre-dose, 360 mg): n=3 602.5 ng ml
Plasma concentration of AZD1208, Gmean (pre-dose, 540 mg): n=4 266.6 ng ml
Plasma concentration of AZD1208, Gmean (pre-dose, 700 mg): n=3 819 ng ml
Plasma concentration of AZD1208, Gmean (pre-dose, 800 mg): n=2 1099 ng ml
Half-life, max (following a single dose): 103 h
Half-life, min (following a single dose): 18.9 h
Mean half-life (following a single dose): 37.2 h
Median Tmax (multiple dosing): ~ 4 h
Tmax range (multiple dosing): 1.5 to 6 h
AZD1208 dose observed in urine (multiple dosing, Day 15): 0.5%
Renal clearance (single and multiple dosing): negligible
AZD1208 dose eliminated in urine (single dose, over 72 h): ~ 1%
Median Tmax (single dosing): ~ 5 h
Tmax range (single dosing): 1.5 to 25 h
